Data published in patent US5380729A, “12-hetero substituted 6,11-ethano-6,11-dihydrobenzo (b) quinolizinium salts and compositions and method of use thereof” (Sterling Winthrop Inc., priority 1993, dated 1995).

Experiments:
PCP recognition sites = experiment: [3H]TCP Radioreceptor Assay (internal screen); assay type: binding, rat (male Sprague-Dawley; conditions: rat whole brain membranes, room temperature, 25 min; for Ki: ~1 nM [3H]TCP; for Percent inhibition, [3H]TCP (internal screen): @ 10 μM
Protocol: [^3 H]TCP Radioreceptor Assay (internal screen)
[^3 H]TCP binding to PCP recognition sites was performed as described by Vignon et al. Brain Research 1983, 280, 194°197. Male Sprague-Dawley rats were sacrificed by decapitation, and whole brains were homogenized in 10 volumes (wt/vol) of cold Tris-HCl buffer (50 mM, pH 7.7) using a Brinkmann Polytron (setting 6, 30 sec). The homogenate was centrifuged at 40,000×g for 10 min at 4° C. The supernatant was decanted, and the homogenization and centrifugation steps were repeated twice as described above. Following this, the pellet was resuspended in Tris-HCl (5 mM, pH 7.7) at a tissue concentration of 0.5°0.75 g/ml, and one ml aliquots were frozen at -70° C. until use. The binding characteristics for PCP recognition sites were not altered by the freezing of membrane suspensions.
On the day of the assay, membrane aliquots were thawed, resuspended in fresh 5 mM Tris-HCl buffer at a tissue concentration of 1 mg/ml, and stored on ice until use. Each assay tube contained 100 μl of [^3 H]TCP at a final concentration of approximately 1 nM, 100 μl of various concentrations of the compounds of interest, 500 μl of the tissue suspension and 300 of buffer to a final assay volume of 1 ml and a final protein concentration of 0.5 mg/tube. Non-specific binding was defined by addition of a final concentration of 100 μM PCP to blank tubes. All tubes were incubated at room temperature for 25 min before termination of the reaction by rapid filtration over Whatman GF/B glass fiber filters that had been presoaked in a solution of 0.5% polyethylenimine for at least 1 hr prior to use. Filters were washed with three 4 ml volumes of cold Tris buffer. Following addition of scintillation cocktail, the amount of bound radioactivity was determined by liquid scintillation spectrometry using a Beckman LS 5000TA liquid scintillation counter with an efficiency for tritium of approximately 55% . Inhibition constants (Ki values) were calculated using the EBDA/LIGAND program (McPherson, J. Pharmacol. Meth. 1985, 14, 213-228), purchased from Elsevier/Biosoft, Inc. Results are reported as Ki values or as a percent (%) inhibition of binding at 10

[1] = tested on: NMDA-induced neurotoxicity in cultured cortical neurons; experiment: Antagonism of NMDA-induced neurotoxicity in cultured neurons (LDH release); assay type: cell-based, mouse (Swiss-Webster); conditions: 500 μM NMDA, 30 minutes, LDH activity at 24 hours, mouse cortical neurons
Protocol: Antagonism of NMDA-induced Neurotoxicityin Cultured Neurons
Preparation of Cultured Cortical Neurons
Pregnant, Swiss-Webster mice were obtained from Taconic Farms (Germantown, New York) and sacrificed 16 days post conception. Fetuses were removed and placed in a sterile dish containing Hank's balanced salt solution (HBSS), pH 7.4. Brain cortices were dissected, meninges were removed, the tissue was minced and placed into a solution of HBSS containing 0.25% (w/v) trypsin at 37° C. for 15 minutes. Tissue was then triturated with a sterile pasteur pipet, diluted with minimal essential media (Gibco 330-1430), pH 7.4, supplemented with 10% horse serum, 10% fetal calf serum, 2 mM 1-glutamine, 21 mM d-glucose, 2.2 g/L sodium bicarbonate, 1000 u/ml penicillin, and 1,000 μg/ml streptomycin. Cells were plated onto Falcon primaria 96 well plates at a final density of 50,000 cells/well and incubated at 37° C. in the presence of 5% (v/v) carbon dioxide. After 5 days, plating media was replaced with maintenance media containing minimal essential media (Gibco 330- 1430), pH 7.4, supplemented with 10% horse serum, 10% 1-glutamine, 21 mM d-glucose, 2.2 g/l sodium bicarbonate,1,000 U/ml penicillin, 1,000 μg/ml streptomycin, and 10 μM cytosine arabinoside. On days 7 and 10, media was replaced with maintenance media as above lacking the cytosine arabinoside. Experiments were conducted on day 13.
Neuroprotection Assessment
Day 13 cultured cortical neurons were washed twice with minimal essential media, pH 7.4 and then exposed for 30 minutes to 500 μM N-methyl-D-aspartic acid (NMDA) with or without varying concentrations of test agents. Dizocilpine (MK-801) at a final concentration of 10 μM MK-801 was routinely included as a positive control. MK-801 and test agents were prepared in minimal essential media supplemented with 21 mM d-glucose and 2.2 g/L sodium bicarbonate (MEM). After 30 minutes, media was replaced with MEM alone. Exposure of neurons to test agents was limited to the NMDA treatment period. Twenty-four hours after removal of NMDA, an aliquot of media from each well was removed for assessment of cell injury by determining lactate dehydrogenase (LDH) activity by. the method of Wroblewski and LaDue Proc. Soc. Exp. Biol. Med. 1955, 90, 210-213. The results are expressed as an IC50 (in nM) value (concentration causing 50% inhibition) for the antagonism of NMDA--inducedneurotoxicity.

Compound | Ki (PCP recognition sites) [nM] | further results
CCOC1(OCC)C2c3cc(OC)ccc3C([n+]3ccccc32)C1(C)C (single isomer, unassigned) [20(a), 9-methoxy-12,12-diethoxy-13,13-dimethyl-6,11-ethano-6,11-dihydrobenzo[b]quinolizinium hexafluorophosphate] | 3.52 | IC50 [1]: 157 nM
CCOC1(OCC)C2c3ccccc3C([n+]3ccccc32)C1(C)C (single isomer, unassigned) [Example 13(c), 12,12-diethoxy-13,13-dimethyl-6,11-ethano-6,11-dihydrobenzo[b]quinolizinium chloride-1/2-3/4 hydrate] |  | Ki (PCP recognition sites; hydrate): 11 nM; IC50 ([1]; Cortical neurone): 50 nM
CCOC1(OCC)C2c3ccccc3C(C1C)[n+]1ccccc12 (single isomer, unassigned) [Example 37, 6,11-ethano-12,12-diethoxy-13-methyl-6,11-dihydrobenzo[b]quinolizinium] |  | IC50 ([1]; Cortical neurone): 810 nM
CCOC1(OCC)C2c3ccccc3C(C1Cl)[n+]1ccccc12 (single isomer, unassigned) [Example 41, 6,11-ethano-12,12-diethoxy-13-chloro-6,11-dihydrobenzo[b]quinolizinium bromide] | 67 | IC50 ([1]; Cortical neurone): 445 nM
CCOC1(OCC)C2c3ccccc3C([n+]3ccccc32)C1(C)C.[O-][Cl+3]([O-])([O-])[O-] (centres unmarked) [1(a), 12,12-diethoxy-13,13-dimethyl-6,11-ethano-6,11-dihydrobenzo[b]quinolizinium perchlorate] | 8.4 | IC50 ([1]; Cortical neurone): 17 nM
CCOC1(OCC)C2c3c(OC)cccc3C([n+]3ccccc32)C1(C)C (centres unmarked) [19(d), 10-methoxy-12,12-diethoxy-13,13-dimethyl-6,11-ethano-6,11-dihydrobenzo[b]quinolizinium chloride·3/2 hydrate] |  | Ki (PCP recognition sites; hydrate): 10.4 nM; IC50 ([1]; Cortical neurone): 21.8 nM
CCOC1(OCC)CC2c3ccccc3C1c1cccc[n+]12 (centres unmarked) [28(b), 6,11-ethano-12,12-diethoxy-6,11-dihydrobenzo[b]quinolizinium chloride] | 4270 | IC50 ([1]; Cortical neurone): 95500 nM
CCOC1(OCC)C2c3c(Br)cccc3C([n+]3ccccc32)C1(C)C (centres unmarked) [Example 30, 6,11-ethano-12,12-diethoxy-13,13-dimethyl-10-bromo-6,11-dihydrobenzo[b]quinolizinium chloride] | 107 | 
CCOC1(OCC)C2c3c(ccc4c3OCO4)C([n+]3ccccc32)C1(C)C.[O-][Cl+3]([O-])([O-])[O-] (centres unmarked) [Example 31, 6,11-ethano-12,12-diethoxy-13,13-dimethyl-9,10-methylenedioxy-6,11-dihydrobenzo[b]quinolizinium perchlorate] | 7.42 | 
CCOC1(OCC)C2(C)c3c(OC)cccc3C([n+]3ccccc32)C1(C)C.[O-][Cl+3]([O-])([O-])[O-] (centres unmarked) [Example 32, 6,11-ethano-12,12-diethoxy-13,13-dimethyl-10-methoxy-11-methyl-6,11-dihydrobenzo[b]quinolizinium perchlorate] | 63.7 | 
CCOC1(OCC)C2c3ccccc3C([n+]3cccc(OC)c32)C1(C)C.[O-][Cl+3]([O-])([O-])[O-] (centres unmarked) [Example 33, 6,11-ethano-12,12-diethoxy-13,13-dimethyl-1-methoxy-6,11-dihydrobenzo-[b]quinolizinium perchlorate] | 25.8 | 
CCOC1(OCC)C2c3ccccc3C(C1Br)[n+]1ccccc12.[O-][Cl+3]([O-])([O-])[O-] (centres unmarked) [Example 36, 6,11-ethano-12,12-diethoxy-13-bromo-6,11-dihydrobenzo[b]quinolizinium perchlorate] | 20.4 | 
COC1(O[Si](C)(C)C)C2c3ccccc3C([n+]3ccccc32)C1(C)C.[O-][Cl+3]([O-])([O-])[O-] (centres unmarked) [Example 40, 6,11-ethano-12-methoxy-12-trimethylsilyloxy-13,13-dimethyl-6,11-dihydrobenzo[b]quinolizinium perchlorate] | 1600 | 
CCN(CC)C1C2c3ccccc3C([n+]3ccccc32)C1(C)C (centres unmarked) [Example 44, 6,11-ethano-12-(diethyl) amino-13,13-dimethyl-6,11-dihydrobenzo[b]quinolizinium diperchlorate] | 501 | 
C[C@@H]1C[C@@H](C)OC2(O1)C1c3ccccc3C([n+]3ccccc31)C2(C)C (stereo partly drawn) [Example 45, 6,11-ethano-12,12-(2R,4R-pentanediolketal)-13,13-dimethyl-6,11-dihydrobenzo[b]quinolizinium perchlorate] | 517 | 
CCOC1(OCC)C2c3c(C)cccc3C([n+]3ccccc32)C1(C)C.[O-][Cl+3]([O-])([O-])[O-] (centres unmarked) [Example 47, 6,11-ethano-12,12-diethoxy-13,13-dimethyl-10-methyl-6,11-dihydrobenzo[b]quinolizinium perchlorate] | 45.5 | 
CCOC1C2c3ccccc3C([n+]3ccccc32)C1(C)C.[O-][Cl+3]([O-])([O-])[O-] (centres unmarked) [Example 48, 6,11-ethano-12-ethoxy-13,13-dimethyl-6,11-dihydrobenzo[b]quinolizinium perchlorate] | 2150 | 
CCOC1(OCC)C2c3c(OC)ccc(OC)c3C([n+]3ccccc32)C1(C)C.[O-][Cl+3]([O-])([O-])[O-] (centres unmarked) [Example 52, 6,11-ethano-12,12-diethoxy-13,13-dimethyl-7,10-dimethoxy-6,11-dihydrobenzo[b]quinolizinium perchlorate] |  | Percent inhibition, [3H]TCP (internal screen) (PCP recognition sites): 33%
CCOC1(OCC)C2c3cccc(C)c3C([n+]3ccccc32)C1(C)C (centres unmarked) [Example 55, 6,11-ethano-12,12-diethoxy-13,13-dimethyl-7-methyl-6,11-dihydrobenzo[b]quinolizinium chloride] | 455 | 
CC(=O)Oc1ccc(C(C)(C)C)c2c1C1[n+]3ccccc3C2C2(O[C@H](C)[C@@H](C)O2)C1(C)C (stereo partly drawn) [Example 56, 6,11-ethano-12,12-(2R,3R-butanediolketal)-13,13-dimethyl-7-acetoxy-10-t-butyl-6,11-dihydrobenzo[b]quinolizinium perchlorate] |  | Percent inhibition, [3H]TCP (internal screen) (PCP recognition sites): 24%
CC(=O)Oc1ccc(C(C)(C)C)c2c1C1[n+]3ccccc3C2C2(O[C@H](C)C[C@@H](C)O2)C1(C)C (stereo partly drawn) [Example 57, 6,11-ethano-12,12-(2R,4R-pentanediolketal)-13,13-dimethyl-7-acetoxy-10-t-butyl-6,11-dihydrobenzo[b]quinolizinium perchlorate] |  | Percent inhibition, [3H]TCP (internal screen) (PCP recognition sites): 18%
CCOC1(OCC)C2c3c(C(C)(C)C)ccc(OC(C)=O)c3C([n+]3ccccc32)C1(C)C.[O-][Cl+3]([O-])([O-])[O-] (centres unmarked) [Example 58, 6,11-ethano-12,12-diethoxy-13,13-dimethyl-7-acetoxy-10-t-butyl-6,11-dihydrobenzo[b]quinolizinium perchlorate] |  | Percent inhibition, [3H]TCP (internal screen) (PCP recognition sites): 12%
CCN(CC)C1C2c3ccccc3C(C1C)[n+]1ccccc12 (centres unmarked) [Example 62, 6,11-ethano-12-(diethyl) amino-13-methyl-6,11-dihydrobenzo[b]quinoliziniumperchlorate] | 12200 | 
